Experimental data as given in patent US12643912B2, “Macrocyclic compounds, a process for their preparation and pharmaceutical compositions containing them” (LES LABORATOIRES SERVIER, priority 2020, dated 2026).

The molecules below were run on Nrf2 (Keap1-NRF2 nuclear translocation) (assay: U2OS translocation assay (PathHunter U2OS Keap1-NRF2 Nuclear Translocation Cell Line)). Settings: Homo sapiens, U2OS, 3 h, read-out: CELLULAR U2OS EC50 (nM), U2OS Keap1-NRF2 nuclear translocation cells, 3 h incubation, luminescence, normalized between 1% DMSO and 10 μM andrographolide.
Type: cell-based
Method: EXAMPLE 84: U2OS—TRANSLOCATION ASSAY
U2OS cell have been stably transduced using MMLV-derived retroviral vector, to overexpress Nrf2-Enzyme Donor fusion protein, and Acceptor Enzyme in the nucleus (PathHunter® U2OS Keap1-NRF2 Nuclear Translocation Cell Line, Ref.93-0821C3, DiscoverX).
PathHunter U2OS cells were grown in Minimum Essential Medium (MEM) (Ref.30-2003, ATCC), 10% FBS (Ref.P30-193306, PanBiotech), 500 μg/ml Geneticine, 250 μg/ml hygromycine, 0.25 μg/ml puromycine (10131-027, 10687-010 and Ref.A1113802 respectively, Life Technologies).
The night before experiment, cells were harvested using Tryple Xpress (Ref.126905, Bibco) for 5 min at 37° C., resuspended in Opti-MEM™ (Ref.31985-047, Gibco), 1% FBS (Ref.P30-193306, PanBiotech) and then plated into 384 wells plates (Ref.6007680, Perkin Elmer) at the density of 7 500 cells/well in 20 μl. Cell are stored over night at 37° C., 5% CO2 until used. Compounds in 100% DMSO (0.315 μl/well) were resuspended in 20 μl MEM, 1% FBS, 3.4% DMSO. Compounds and andrographolide (10 μM final concentration; Ref.365645-500MG, Aldrich)) as positive control, were dispensed on cell, 5 μl /well, and then incubated for 3 h at 37° C. and 5% CO2. After incubation, Path hunter reagents were dispensed on cells (12 μl /well, Ref.93-0001, DiscoverX) and incubated for 60 min at room temperature in the dark.
Then, luminescence signal was measured using multimodal reader (Pherastar, BMG Labtech). Data were normalized between 1% DMSO (basal signal) and 10 μM andrographolide (positive signal) and analyzed using Activity Base software.
For COc1ccc2cc1[C@H](C)N1Cc3cc(ccc3OS1(=O)=O)OCCCCn1nnc3c(C)c(ccc31)[C@@H]2CC(=O)O [Example 28c, [(2S,8R)-4-Methoxy-2,31-dimethyl-27,27-dioxo-21,26-dioxa-27λ^6-thia-1,14,15,16-tetraazahexacyclo[20.5.3.1^3,70.1^9,130.0^12,160.0^25,29]dotriaconta-3(32),4,6,9(31),10,12,14,22,24,29-decaen-8-yl]acetic acid], the EC50 was > 3160 nM. COc1ccc2cc1[C@H](C)N1Cc3cc(ccc3OS1(=O)=O)OCCCCn1nnc3c(C)c(ccc31)[C@H]2CC(=O)O [Example 28d, [(2S,8S)-4-methoxy-2,31-dimethyl-27,27-dioxo-21,26-dioxa-27λ^6-thia-1,14,15,16-tetraazahexacyclo[20.5.3.1^3,70.1^9,130.0^12,160.0^25,29]dotriaconta-3(32),4,6,9(31),10,12,14,22,24,29-decaen-8-yl]acetic acid] showed an EC50 of 879 nM. Work on Cc1ccc2cc1[C@@H](C)N1Cc3cc(cc(C)c3OS1(=O)=O)OCCCCn1nnc3c(C)c(ccc31)[C@@H]2CC(=O)O [Example 29a, [(2R,8R)-2,4,24,31-Tetramethyl-27,27-dioxo-21,26-dioxa-27λ^6-thia-1,14,15,16-tetraazahexacyclo[20.5.3.1^3,70.1^9,130.0^12,160.0^25,29]dotriaconta-3(32),4,6,9(31),10,12,14,22,24,29-decaen-8-yl]acetic acid] yielded an EC50 of 440 nM. Work on Cc1ccc2cc1[C@@H](C)N1Cc3cc(cc(C)c3OS1(=O)=O)OCCCCn1nnc3c(C)c(ccc31)[C@H]2CC(=O)O [Example 29b, [(2R,8S)-2,4,24,31-tetramethyl-27,27-dioxo-21,26-dioxa-27λ^6-thia-1,14,15,16-tetraazahexacyclo[20.5.3.1^3,70.1^9,130.0^12,160.0^25,29]dotriaconta-3(32),4,6,9(31),10,12,14,22,24,29-decaen-8-yl]acetic acid] yielded an EC50 of 68.4 nM. In the case of COc1ccc2cc1[C@H](C)N1Cc3cc(ccc3OS1(=O)=O)OCCCCCn1nnc3c(C)c(ccc31)[C@H]2CC(=O)O [Example 31a, [(2S,8S)-4-methoxy-2,32-dimethyl-28,28-dioxo-22,27-dioxa-28λ^6-thia-1,14,15,16-tetraazahexacyclo[21.5.3.1^3,70.1^9,130.0^12,160.0^26,30]tritriaconta-3(33),4,6,9(32),10,12,14,23,25,30-decaen-8-yl]acetic acid], the EC50 is reported as 1430 nM. COc1ccc2cc1[C@@H](C)N1Cc3cc(ccc3OS1(=O)=O)OCCCCCn1nnc3c(C)c(ccc31)[C@H]2CC(=O)O [Example 31b, [(2R,8S)-4-methoxy-2,32-dimethyl-28,28-dioxo-22,27-dioxa-28λ^6-thia-1,14,15,16-tetraazahexacyclo[21.5.3.1^3,70.1^9,130.0^12,160.0^26,30]tritriaconta-3(33),4,6,9(32),10,12,14,23,25,30-decaen-8-yl]acetic acid] was tested, and the EC50 was 27.4 nM. In the case of COc1ccc2cc1[C@H](C)N1Cc3cc(ccc3OS1(=O)=O)OCCCCCn1nnc3c(C)c(ccc31)[C@@H]2CC(=O)O [Example 31c, [(2S,8R)-4-methoxy-2,32-dimethyl-28,28-dioxo-22,27-dioxa-28λ^6-thia-1,14,15,16-tetraazahexacyclo[21.5.3.1^3,70.1^9,130.0^12,160.0^26,30]tritriaconta-3(33),4,6,9(32),10,12,14,23,25,30-decaen-8-yl]acetic acid], the EC50 is reported as > 3160 nM. Molecule COc1ccc2cc1[C@@H](C)N1Cc3cc(ccc3OS1(=O)=O)OCCCCCn1nnc3c(C)c(ccc31)[C@@H]2CC(=O)O [Example 31d, [(2R,8R)-4-methoxy-2,32-dimethyl-28,28-dioxo-22,27-dioxa-28λ^6-thia-1,14,15,16-tetraazahexacyclo[21.5.3.1^3,70.1^9,130.0^12,160.0^26,30]tritriaconta-3(33),4,6,9(32),10,12,14,23,25,30-decaen-8-yl]acetic acid] has an EC50 of 326 nM. Molecule COc1cc2cc(c1Cl)CN1Cc3cc(ccc3OS1(=O)=O)OCCCCn1nnc3c(C)c(ccc31)C2CC(=O)O (stereo not shown) [Example 38a, [4-Chloro-5-methoxy-31-methyl-27,27-dioxo-21,26-dioxa-27λ^6-thia-1,14,15,16-tetraazahexacyclo[20.5.3.1^3,70.1^9,130.0^12,160.0^25,29]dotriaconta-3(32),4,6,9(31),10,12,14,22,24,29-decaen-8-yl]acetic acid] has an EC50 of 2080 nM. COc1ccc2cc1[C@@H](C)N1Cc3cc(ccc3OS1(=O)=O)OCCOCCn1nnc3c(C)c(ccc31)[C@H]2CC(=O)O [Example 41a] showed an EC50 of 716 nM. COc1ccc2cc1[C@@H](C)N1Cc3cc(ccc3OS1(=O)=O)OCCOCCn1nnc3c(C)c(ccc31)[C@@H]2CC(=O)O [Example 41b] was tested, and the EC50 was > 3160 nM. In the case of Cc1ccc2cc1[C@@H](C)N1Cc3cc(ccc3OS1(=O)=O)OC[C@@H](O)CCn1nnc3c(C)c(ccc31)[C@H]2CC(=O)O [Example 46a, [(2R,8RS,19S)-19-Hydroxy-2,4,31-trimethyl-27,27-dioxo-21,26-dioxa-27λ^6-thia-1,14,15,16-tetraazahexacyclo[20.5.3.1^3,70.1^9,130.0^12,160.0^25,29]dotriaconta-3(32),4,6,9(31),10,12,14,22,24,29-decaen-8-yl]acetic acid], the EC50 is reported as 228 nM. Cc1ccc2cc1[C@@H](C)N1Cc3cc(ccc3OS1(=O)=O)OC[C@@H](O)CCn1nnc3c(C)c(ccc31)[C@@H]2CC(=O)O [Example 46b, [(2R,8RS,19S)-19-hydroxy-2,4,31-trimethyl-27,27-dioxo-21,26-dioxa-27λ^6-thia-1,14,15,16-tetraazahexacyclo[20.5.3.1^3,70.1^9,130.0^12,160.0^25,29]dotriaconta-3(32),4,6,9(31),10,12,14,22,24,29-decaen-8-yl]acetic acid] showed an EC50 of 792 nM. With COc1ccc2cc1CN1Cc3cc(ccc3OS1(=O)=O)OCCN(C)CCCCn1nnc3c(C)c(ccc31)C2CC(=O)O (stereo not shown) [Example 47] the EC50 was 288 nM.

Same assay, conditions: read-out: CELLULAR U2OS EC50; U2OS Keap1-NRF2 nuclear translocation cells, 3 h incubation, luminescence, normalized between 1% DMSO and 10 μM andrographolide
In the case of Cc1ccc2cc1CN1Cc3cc(ccc3OS1(=O)=O)OCCOCCn1nnc3c(C)c(ccc31)C2CC(=O)O (single isomer, unassigned) [Example 78b, [4,32-Dimethyl-28,28-dioxo-19,22,27-trioxa-28λ^6-thia-1,14,15,16-tetraazahexacyclo[21.5.3.1^3,70.1^9,130.0^12,160.0^26,30]tritriaconta-3(33),4,6,9(32),10,12,14,23,25,30-decaen-8-yl]acetic acid], the EC50 is reported as 873 nM. Cc1ccc2cc1CN1Cc3cc(ccc3OS1(=O)=O)OCCCCn1nnc3c(C)c(ccc31)C2C(C)(C)C(=O)Nc1cncnc1 (single isomer, unassigned) [Example 81a, 2-[4,31-Dimethyl-27,27-dioxido-21,26-dioxa-27-thia-1,14,15,16-tetraazahexacyclo[20.5.3.1^3,70.1^9,130.0^12,160.0^25,29]dotriaconta-3(32),4,6,9(31),10,12,14,22,24,29-decaen-8-yl]-2-methyl-N-(pyrimidin-5-yl)propanamide] was tested, and the EC50 was 275 nM. Cc1ccc2cc1CN1Cc3cc(ccc3OS1(=O)=O)OCCCCn1nnc3c(C)c(ccc31)C2C(C)(C)C(=O)Nc1cncnc1 (single isomer, unassigned) [Example 81b, 2-[4,31-Dimethyl-27,27-dioxido-21,26-dioxa-27-thia-1,14,15,16-tetraazahexacyclo[20.5.3.1^3,70.1^9,130.0^12,160.0^25,29]dotriaconta-3(32),4,6,9(31),10,12,14,22,24,29-decaen-8-yl]-2-methyl-N-(pyrimidin-5-yl)propanamide] was tested, and the EC50 was > 3160 nM. Work on Cc1ccc2cc1CN1Cc3cc(ccc3OS1(=O)=O)OCCCCn1nnc3c(C)c(ccc31)C2C(C)(C)C(=O)Nc1cccnc1 (single isomer, unassigned) [Example 82a, 2-[4,31-Dimethyl-27,27-dioxo-21,26-dioxa-27λ^6-thia-1,14,15,16-tetraazahexacyclo[20.5.3.1^3,70.1^9,130.0^12,160.0^25,29]dotriaconta-3(32),4,6,9(31),10,12,14,22,24,29-decaen-8-yl]-2-methyl-N-(pyridin-3-yl)propanamide] yielded an EC50 of 635 nM. In the case of Cc1ccc2cc1CN1Cc3cc(ccc3OS1(=O)=O)OCCCCn1nnc3c(C)c(ccc31)C2C(C)(C)C(=O)Nc1cccnc1 (single isomer, unassigned) [Example 82b, 2-[4,31-Dimethyl-27,27-dioxo-21,26-dioxa-27λ^6-thia-1,14,15,16-tetraazahexacyclo[20.5.3.1^3,70.1^9,130.0^12,160.0^25,29]dotriaconta-3(32),4,6,9(31),10,12,14,22,24,29-decaen-8-yl]-2-methyl-N-(pyridin-3-yl)propanamide], the EC50 is reported as > 3160 nM.
